In ChEMBL document CHEMBL5143695, “Benzobis(imidazole) derivatives as STAT3 signal inhibitors with antitumor activity” (Bioorg Med Chem, 2022) one finds IC50, inhibition in vivo and Activity data, which are given here for 42 molecules.

The nature of series [1]: Inhibition of IL-6/JAK/STAT3 signalling pathway in HEK-blue IL-6 cells incubated for 16 hrs by SEAP reporter gene based QUANTI- blue assay. The series is classed as cell-based. To be noted: Homo sapiens, HEK-Blue IL-6, 16 h. On the technique in general: Reporter assays use an easily measured gene product as a stand-in for the process of interest.
Series [2] in a line: Cytotoxicity against HEK-Blue IL-6 cells. As to conditions: human. The series is classed as toxicity, cell-based.
The test system of series [3] is ECa-109 cell line. As to the kind of experiment: Antitumor activity against human EC109 cells assessed as reduction in cell viability incubated for 72 hrs by MTT assay. The series is classed as functional, cell-based. To be noted: ECa-109, 72 h. On the technique in general: Tetrazolium assays rely on reduction of a dye to a coloured formazan, in cell work by metabolically active cells.

Series [4] relates to HepG2. As to the kind of experiment: Antitumor activity against human HepG2 cells assessed as reduction in cell viability incubated for 72 hrs by MTT assay. The format is functional, cell-based. As to conditions: HepG2, 72 h.
The subject of series [5] is HepG2. Put plainly: Antitumor activity against human HepG2 cells xenografted in BALB/c athymic nude mouse assessed as tumor growth inhibition at 60 mg/kg, po administered daily for 24 days relative to control. The format is functional. As to conditions: HepG2, 576 h, time 24 day, read-out: TGI.
The nature of series [6]: Toxicity in BALB/c athymic nude mouse xenografted with human HepG2 cells assessed as decrease in body weight at 60 mg/kg, po administered daily for 24 days. The format is organism-based. To be noted: in vivo, 576 h, time 24 day. (In general: A xenograft is tissue or cells of one species grown in another, often human tumour cells in immunodeficient mice.)

SMILES strings stand for the structures. Bounds are passed on as bounds.

In general, IC50 refers to the point on the concentration scale where inhibition reaches its midpoint.

Consider `CCCn1c(-c2cc(C(C)(C)C)cc(C(C)(C)C)c2)nc2cc3nc(-c4cc(C(C)(C)C)cc(C(C)(C)C)c4)n(CCC)c3cc21`, for which the IC50 in series [1] and in series [2] was over 10 µM throughout.
In the case of `CCCn1c(-c2cccc(C(F)(F)F)c2)nc2cc3nc(-c4cccc(C(F)(F)F)c4)n(CCC)c3cc21`, the IC50 was over 20 µM in series [3], 1.24 µM in series [1], over 10 µM in series [2] and over 20 µM in series [4].
In the case of `CCCn1c(C2CCOC2)nc2cc3nc(C4CCOC4)n(CCC)c3cc21` (stereo unspecified), the IC50 in series [1] and in series [2] was over 10 µM in each case.
Take `CCCn1c(-c2ccccc2F)nc2cc3nc(-c4ccccc4F)n(CCC)c3cc21`: the IC50 in series [1] is 10.3 µM; in series [2] it was over 10 µM.
As to `CCCn1c(-c2cc(OC)cc(OC)c2)nc2cc3nc(-c4cc(OC)cc(OC)c4)n(CCC)c3cc21`, the IC50 in series [1] and in series [2] was over 10 µM each time.
On to `Fc1cccc(-c2nc3cc4nc(-c5cccc(F)c5)n(C5CC5)c4cc3n2C2CC2)c1`, for which the IC50 in series [1] and in series [2] was over 10 µM in each case.
On to `CCCn1c(-c2ccc[nH]2)nc2cc3nc(-c4ccc[nH]4)n(CCC)c3cc21`, for which the IC50 in series [1] and in series [2] was over 10 µM each time.
Consider `CCn1c(-c2cccc(F)c2)nc2cc3nc(-c4cccc(F)c4)n(CC)c3cc21`, for which the IC50 in series [1] and in series [2] was over 10 µM throughout.
As for `CCCn1c(-c2cccc(F)c2)nc2cc3nc(-c4cccc(F)c4)n(CCC)c3cc21`, the IC50 is over 20 µM in series [3], 1.5 µM in series [1], over 10 µM in series [2] and over 20 µM in series [4].
As for `CCCn1c(-c2scc3ccccc23)nc2cc3nc(-c4scc5ccccc45)n(CCC)c3cc21`, the IC50 in series [1] and in series [2] was over 10 µM in each case.
Consider `CCCn1c(-c2ccc(F)c(C(F)(F)F)c2)nc2cc3nc(-c4ccc(F)c(C(F)(F)F)c4)n(CCC)c3cc21`, for which the IC50 in series [1] and in series [2] was over 10 µM throughout.
Turning to `CCCn1c(-c2ccc(F)cc2)nc2cc3nc(-c4ccc(F)cc4)n(CCC)c3cc21`, the IC50 in series [1] and in series [2] was over 10 µM each time.
For `CCCn1c(-c2cccc(OC)c2)nc2cc3nc(-c4cccc(OC)c4)n(CCN(C)C)c3cc21`, the IC50 in series [1] and in series [2] was over 10 µM in each case.
Regarding `CCCn1c(-c2cccc(O)c2)nc2cc3nc(-c4cccc(O)c4)n(CCC)c3cc21`, the IC50 in series [1] was 10.2 µM; in series [2], over 10 µM.
On to `CCCn1c(C2CCCCC2)nc2cc3nc(C4CCCCC4)n(CCC)c3cc21`, for which the IC50 in series [1] was 8.11 µM; in series [2] it was over 10 µM.
As to `CCCn1c(-c2cncnc2)nc2cc3nc(-c4cncnc4)n(CCC)c3cc21`, the IC50 in series [1] and in series [2] was over 10 µM throughout.
With `CCCCn1c(-c2cccc(F)c2)nc2cc3nc(-c4cccc(F)c4)n(CCCC)c3cc21`, the IC50 in series [1] was 7.85 µM; in series [2] it was over 10 µM.
With `CCCn1c(-c2cccc(Cl)c2)nc2cc3nc(-c4cccc(Cl)c4)n(CCC)c3cc21`, the IC50 was over 20 µM in series [3], 2.89 µM in series [1], over 10 µM in series [2] and 17.9 µM in series [4].
For `CCCn1c(-c2ccccc2)nc2cc3nc(-c4ccccc4)n(CCN(C)C)c3cc21`, the IC50 in series [1] and in series [2] was over 10 µM in each case.
In the case of `CCCn1c(-c2cccc(Br)c2)nc2cc3nc(-c4cccc(Br)c4)n(CCC)c3cc21`, the IC50 in series [1] and in series [2] was over 10 µM throughout.
As to `CCCn1c(-c2cccc(C#N)c2)nc2cc3nc(-c4cccc(C#N)c4)n(CCC)c3cc21`, the IC50 in series [1] was 6.7 µM; in series [2] it was over 10 µM.
In the case of `CCCn1c(-c2ccc3cc[nH]c3c2)nc2cc3nc(-c4ccc5cc[nH]c5c4)n(CCC)c3cc21`, the IC50 in series [1] and in series [2] was over 10 µM throughout.
For `CCCn1c(-c2cccc(OCC)c2)nc2cc3nc(-c4cccc(OCC)c4)n(CCC)c3cc21`, the 50% inhibitory concentration (IC50) in series [1] and in series [2] was over 10 µM in each case.
Take `CCCn1c(-c2cccc(C)c2)nc2cc3nc(-c4cccc(C)c4)n(CCC)c3cc21`: the IC50 in series [3] is over 20 µM; in series [1] it was 2 µM; in series [2] it was over 10 µM; in series [4] it was 6.12 µM.
On to `CCCn1c(-c2ccc(C)o2)nc2cc3nc(-c4ccc(C)o4)n(CCC)c3cc21`, for which the 50% inhibitory concentration (IC50) in series [1] and in series [2] was over 10 µM each time.
Consider `CCCn1c(-c2cccc(C(=O)OC)c2)nc2cc3nc(-c4cccc(C(=O)OC)c4)n(CCC)c3cc21`, for which the concentration for half-maximal inhibition (IC50) in series [1] was 8.89 µM; in series [2], over 10 µM.
In the case of `CCCn1c(-c2ccccc2)nc2cc3nc(-c4ccccc4)n(CCC)c3cc21`, the IC50 in series [3] was 12.6 µM; in series [1] it was 7.21 µM; in series [2], over 10 µM; in series [4], 13.2 µM.
Consider `CCCn1c(C2CCC2)nc2cc3nc(C4CCC4)n(CCC)c3cc21`, for which the IC50 in series [1] and in series [2] was over 10 µM in each case.
As for `CCCn1c(-c2cc(OC)c(OC)c(OC)c2)nc2cc3nc(-c4cc(OC)c(OC)c(OC)c4)n(CCC)c3cc21`, the IC50 in series [1] and in series [2] was over 10 µM throughout.
As to `CCCn1c(-c2cc(F)cc(F)c2)nc2cc3nc(-c4cc(F)cc(F)c4)n(CCC)c3cc21`, the IC50 in series [1] and in series [2] was over 10 µM in each case.
Consider `CCCn1c(C2CC2)nc2cc3nc(C4CC4)n(CCC)c3cc21`, for which the IC50 in series [1] and in series [2] was over 10 µM each time.
Take `CCCn1c(-c2cccc3ccccc23)nc2cc3nc(-c4cccc5ccccc45)n(CCC)c3cc21`: the IC50 in series [1] is 9.5 µM; in series [2], over 10 µM.
Regarding `CCCn1c(-c2ccc(C)nc2)nc2cc3nc(-c4ccc(C)nc4)n(CCC)c3cc21`, the IC50 in series [1] and in series [2] was over 10 µM throughout.
Turning to `CNC(=O)c1cc(Oc2ccc(NC(=O)Nc3ccc(Cl)c(C(F)(F)F)c3)cc2)ccn1` [SORAFENIB], in series [5], the inhibition in vivo at 60 mg/kg was determined as 88.4%. The Activity entry in series [6] is on record as “Toxic”.
For `CCCn1c(-c2cccn2C)nc2cc3nc(-c4cccn4C)n(CCC)c3cc21`, the IC50 in series [1] and in series [2] was over 10 µM each time.
For the molecule `C[C@H]1COC2=C1C(=O)C(=O)c1c2ccc2c1CCCC2(C)C` [CRYPTOTANSHINONE], the IC50 is 5.01 µM in series [3], 6.61 µM in series [1], over 10 µM in series [2] and 29.2 µM in series [4].
As for `CCCn1c(-c2ccc(Cl)c(C(F)(F)F)c2)nc2cc3nc(-c4ccc(Cl)c(C(F)(F)F)c4)n(CCC)c3cc21`, the half-maximal inhibitory concentration (IC50) in series [1] and in series [2] was over 10 µM throughout.
As to `CC(C)Cn1c(-c2cccc(F)c2)nc2cc3nc(-c4cccc(F)c4)n(CC(C)C)c3cc21`, the IC50 in series [1] and in series [2] was over 10 µM each time.
Take `CCCn1c(-c2ccc(C(F)(F)F)cc2)nc2cc3nc(-c4ccc(C(F)(F)F)cc4)n(CCC)c3cc21`: the IC50 in series [1] and in series [2] was over 10 µM throughout.
In the case of `CCCn1c(-c2nccs2)nc2cc3nc(-c4nccs4)n(CCC)c3cc21`, the IC50 in series [1] and in series [2] was over 10 µM each time.
For `CCCn1c(-c2cccc(OC)c2)nc2cc3nc(-c4cccc(OC)c4)n(C4CCN(C)CC4)c3cc21`, the IC50 in series [1] and in series [2] was over 10 µM in each case.
On to `CCCn1c(C2CCOCC2)nc2cc3nc(C4CCOCC4)n(CCC)c3cc21`, for which the IC50 in series [1] and in series [2] was over 10 µM each time.
